Measurements as given in US20140303242A1, “Sparstolonin B Based Pharmaceutical Agent to Treat Pathological Angiogensis” (University of South Carolina, priority 2013, published 2014).

Experiments:
HUVECs [1] = assay: Microarray gene expression analysis (HUVECs); format: cell-based, human
Description: Confluent plates (100×20 mm polystyrene, tissue culture-treated petri plates coated with 0.1% gelatin, 75% confluent) of HUVECs and HCAECs (four plates for HUVECs, n=2, and six plates for HCAECs, n=3) were chosen for the microarray experiments. Half of the plates received complete growth medium (10% fetal bovine serum with endothelial mitogen) containing vehicle control (0.1% DMSO), and the remaining plates received complete growth medium containing 100 μM SsnB. The plates were incubated for 24 h to allow SsnB to have an effect on cellular gene expression. Following incubation, RNA isolation was completed with the RNeasy Mini kit from Qiagen. The cells were lysed, and RNA was isolated by using the RNeasy spin columns and following the protocol provided by Qiagen. Purified RNA was sent to the Medical University of South Carolina Proteogenomics Facility for microarray analysis. The GeneChip Human Genome U133 Plus 2.0 Array was utilized to track changes in gene expression due to SsnB treatment. Complete data was uploaded to the NCBI Gene Expression Omnibus database (accession number GSE44598).
(§1) Microarray data analysis, including data normalization (robust multi-array average), identification of differentially expressed genes (comparative analyses with dChip software), and heat map construction, was carried out to determine how SsnB affects gene expression and affected pathways (n=2 for HUVECs and n=3 for HCAECs). After a careful analysis of the microarray data, several key genes were chosen for qRT-PCR to verify the gene expression results. The genes were chosen based on the following criteria: fold change ≧2, p<0.05, unpaired t-test with a false discovery rate approximating 0%, appearing in both data sets (HUVECs and HCAECs), and gene function relating to cell proliferation and/or angiogenesis. For qRT-PCR, the expression levels were normalized to the housekeeping gene GAPDH, and RNA levels were compared between groups with the ΔΔCt method.

HUVECs [2] = assay: Real time RT-PCR gene expression (HUVECs); format: cell-based, human; conditions: 24 h
Description: After a careful analysis of the microarray data, key genes (CDC6, CCNE2, KITLG, ALDH3A1, CCNB1, CDC2, HMMR, DIAPH3, ANLN, and CDKN3) were chosen for quantitative real-time PCR (qRT-PCR) to verify the gene expression results. HCAECs and HUVECs were exposed to SsnB or vehicle control for 24 h (as previously described in the microarray section). For RT-PCR, RNA was isolated from the cells with the RNeasy Mini kit as described previously. After forward and reverse primer kits (Qiagen, Valencia, Calif.) were selected, the RNA was amplified. The one-step RT-PCR reactions were completed on the BioRad iCycler thermal cycler system in the Instrumentation Resource Facility at the USC School of Medicine. The expression levels were normalized, and RNA levels were quantified.
as §1

[3] = HUVECs, 100 μM SsnB vs vehicle control, 24 h
[4] = microarray data, cell type not specified
[5] = SsnB vs vehicle control, normalized to GAPDH

In the case of `O=c1occ2c3c(ccc(O)c13)Oc1ccc(O)cc1-2` [SsnB, Sparstolonin B], the “ALDH3A1 Microarray Fold change value” (HUVECs [1]; [3]) is reported as 7.7, the “ANLN Microarray Fold change value” (HUVECs [1]; [3]) is reported as 0.09 and the “CCNB1 Microarray Fold change value” (HUVECs [1]; [3]) is reported as 0.19. For the same compound, the “CCNE2 Microarray Fold change value” (HUVECs [1]; [3]) was 0.24, the “CDC2 Microarray Fold change value” (HUVECs [1]; [3]) was 0.08 and the “CDC6 Microarray Fold change value” (HUVECs [1]; [3]) was 0.23. The “CDKN3 Microarray Fold change value” (HUVECs [1]; [3]) was 0.19, the “DIAPH3 Microarray Fold change value” (HUVECs [1]; [3]) was 0.34 and the “HMMR Microarray Fold change value” (HUVECs [1]; [3]) was 0.11. The “KITLG Microarray Fold change value” (HUVECs [1]; [3]) was 6.2, the “number of differentially expressed genes in response to SsnB exposure” value (HUVECs [1]; HUVECs, 100 μM, 24 h, fold change ≧2, p<0.05) was 916 genes and the “KIF18A expression in microarray data” value (HUVECs [1]; [4]) was “downregulated”. For the same compound, the “TACC3 expression in microarray data” value (HUVECs [1]; [4]) was “downregulated”, the “aurora kinases (AURKA and AURKB) expression in microarray data” value (HUVECs [1]; [4]) was “downregulated” and the “ALDH3A1 expression (qRT-PCR)” value (HUVECs [2]) was 1280 % of controls. For the same compound, the “KITLG expression (qRT-PCR)” value (HUVECs [2]) was 400 % of controls, the “ALDH3A1 PCR 2^ΔΔCt value” (HUVECs [2]; [5]) was 12.8 and the “ANLN PCR 2^ΔΔCt value” (HUVECs [2]; [5]) was 0.20. For the same compound, the “CCNB1 PCR 2^ΔΔCt value” (HUVECs [2]; [5]) was 0.40, the “CCNE2 PCR 2^ΔΔCt value” (HUVECs [2]; [5]) was 0.64 and the “CDC2 PCR 2^ΔΔCt value” (HUVECs [2]; [5]) was 0.14. The “CDC6 PCR 2^ΔΔCt value” (HUVECs [2]; [5]) was 0.35, the “CDKN3 PCR 2^ΔΔCt value” (HUVECs [2]; [5]) was 0.18 and the “DIAPH3 PCR 2^ΔΔCt value” (HUVECs [2]; [5]) was 0.19. The “HMMR PCR 2^ΔΔCt value” (HUVECs [2]; [5]) was 0.24 and the “KITLG PCR 2^ΔΔCt value” (HUVECs [2]; [5]) was 4.0.
